Reference: patent US20100168228A1, “NOVEL CHEMOTHERAPEUTIC AGENTS AGAINST INFLAMMATION AND CANCER” (RELIANCE LIFE SCIENCES PVT. LTD., priority 2006, published 2010)

Assays:
Type in all cases: cell-based, human
NF-κB [1] = experiment: NF-κB activation assay, MCF-7; details: MCF-7, 15 μM 3 h, 0.1 nM TNF 30 min
Protocol: (§1) FIG. 4: Effect of CAMVE on NF-κB activation in different cell lines. A. HeLa, MCF-7, U937, were incubated at 37° C. for 3 h with 15 μM dose of CAMVE and then stimulated with 0.1 nM TNF for 30 min. After these treatments, nuclear extracts were prepared and assayed for NF-κB using BD Transfactor ELISA method. B. RAW 264.7 cells pretreated with indicated doses of CAMVE were stimulated with 100 ng/ml LPS for 30 min and assayed for NF-κB activation.
(§2) Cell pellet was resuspended in lysis buffer (10 mM HEPES, pH 7.9, 1.5 mM MgCl2, 10 mM KCl, 1 mM PMSF, 1 mMDTT, 0.5% NP 40, 0.1 mM EGTA and 0.1 mM EDTA) and allowed to swell on ice for 15 min, followed by centrifugation at 3300×g for 20 min. The cell pellet was resuspended in a volume of lysis buffer equal to the cell pellet volume. The cell suspension was slowly drawn down into a syringe and ejected the content in a single stroke. Disrupted cells were incubated for 15 min on ice, and the disrupted cell suspension was centrifuged at 10,000×g for 20 min at 4° C. […]
(§3) The assay was performed by using wells coated with oligonucleotides having the consensus DNA binding sites for the specific transcription factors. […] Bound transcription factor was detected by a specific Primary Antibody. […] After addition of the substrate, the Absorbance was recorded at 655 nm.

NF-κB [2] = experiment: NF-κB activation assay, U937; details: U937, 15 μM 3 h, 0.1 nM TNF 30 min
Protocol: as §1, §2, §3

p65 = experiment: Nuclear translocation of p65 by flow cytometry, Jurkat
Protocol: FIG. 5: Effect of CAMVE on TNF or LPS induced nuclear translocation of p65. A. HeLa cells either untreated or pretreated with 15 μM CAMVE for 3 h at 37° C. were stimulated with 0.1 nM TNF and immunocytochemical analysis were performed as described in “Materials and Methods”. B. Jurkat (5×10^5 cells/ml) cells were pretreated with indicated concentrations of CAMVE for 3 h and then stimulated with 0.1 nM of TNF for 30 min or 100 ng/ml of SA-LPS (serum activated LPS) for 15 min. After these treatments, cells were washed twice with PBS and nuclei were isolated by incubating the cells with […] Pipes-Triton buffer for 30 min at 4° C. Nuclei were stained for p65 and analyzed using FACS. (i). Representative histogram overlay showing TNF or LPS stimulated (1), basal (2), CAMVE stimulated (3), p65 staining in the nucleus. (ii). Ordinates gives the Isotype-corrected MFI for various treatments.
The assay was performed as described previously (Blaecke, A., Yves, D., Herbault, N., Jeannin, P., Bonnefoy, J. V., Beck, A., Aubry, J. P. (2002) Cytometry 48, 71-79). Briefly after stimulation, cells were washed twice with PBS. Nucleus was prepared by incubating the cells with 200 ul Pipes-Triton buffer for 30 min at 4° C. […] After washing, the nuclei were incubated with secondary FITC conjugated goat anti-mouse antibody (Sigma) for additional 30 mins at 4° C. and analysed using FACS. […]

Jurkat cells [3] = experiment: Lipid peroxidation, TBARS assay; details: pretreated 3 h, TNF 1 nM 1 h
Protocol: Lipid peroxidation was assessed by the TBARS assay, which detects mainly malondialdehyde (MDA), a product of the peroxidation of polyunsaturated fatty acids and related esters. TBARS were measured by a modification of the method described previously, (Ohkawa et al., Anal. Biochem. 95:351-358. (1979)). Jurkat cells, 6×10^6 cells in 2 ml were pretreated with either media or different concentrations of CAMVE (as described in the Figure legends) for 3 h and then stimulated with 1 nM TNF for 1 h. Cells were washed before undergoing three cycles of freeze-thawing in 200 μl of water. A 20 μl aliquot was subsequently removed for Bradford protein determination, and 800 μl of assay mix (0.4% (w/v) thiobarbituric acid, 0.5% (w/v) SDS, 9.4% (v/v) acetic acid, pH 3.5) was added to the remaining sample. Samples were incubated for 60 min at 95° C., cooled at room temperature, and centrifuged at 14,000×g for 10 min, and the absorbance of the supernatants was read at 532 nm against a standard curve prepared using the MDA standard (10 mM 1,1,3,3-tetramethoxypropane in 20 mM Tris-HCL, pH 7.4). Results were calculated as nmol of MDA equivalents/mg of protein and expressed as a percentage of matched control values.

Jurkat cells [4] = experiment: Nuclear staining assay (propidium iodide), Jurkat; details: 24 h
Protocol: Nuclear staining assay: After treatment with the compound for 24 h, Jurkat cells were washed once with ice-cold EDTA/PBS (5 mM) and fixed with 70% ethanol for 1 h at RT. Fixed cells were placed on slides and stained with PI (5 μg/ml) with RNase A (1 mg/ml) for 20 mins. After decolourization with water, nuclear morphology of cells was examined by fluorescence microscopy.

Structure (SMILES): COC(=O)c1ccc(OC(=O)/C=C/c2ccc(O)c(O)c2)c(OC)c1 [compound 1, Methyl 4-{[(2E)-3-(3,4-dihydroxyphenyl)prop-2-enoyl]oxy}-3-methoxybenzoate]
- TNF-induced NF-κB activation (NF-κB [1]): blocks TNF-induced NF-κB activation
- TNF-induced NF-κB activation (NF-κB [2]): blocks TNF-induced NF-κB activation
- TNF or LPS mediated p65 translocation (p65; Jurkat nuclei, pretreated 3 h, 0.1 nM TNF or 100 ng/ml SA-LPS): blocked with CAMVE pretreatments
- basal nuclear p65 staining (p65; Jurkat, CAMVE alone): not altered by incubation with CAMVE alone
- TNF induced lipid peroxidation (Jurkat cells [3]): significantly suppressed by CAMVE in a dose dependent manner

Structure (SMILES): COc1cc([C@@H]2Oc3c(OC)cc(/C=C/C(=O)O)cc3[C@H]2C(=O)O)ccc1O [compound 27, 5-[(E)-2-carboxyvinyl]-2β-(4-hydroxy-3-methoxyphenyl)-7-methoxy-2,3-dihydro-1-benzofuran-3α-carboxylic acid]
- nuclear morphology after propidium iodide staining (Jurkat cells [4]): typical apoptotic nuclei
